How the values were obtained:
[1] = system: MDCK-MDR1 cells; experiment: in vitro; format: in vitro ADME, canine; conditions: 3 μM test compound
Description: (§1) MDCK-MDR1 cells (Madin-Darby canine kidney cells transfected with the human MDR1 gene) (Dr. Piet Borst, NKI-AVL, Amsterdam, The Netherlands) were seeded at 300,000 cells per well onto microporous, polycarbonate membranes in 12 well Costar Transwell® plates (Corning, Corning, N.Y.). The medium was removed and replaced with fresh cell culture medium approximately 24 hours after plating. Cells attained confluency and were ready for use in the transport assay after 72 hours of incubation.
(§2) A stock solution of each compound was prepared in DMSO at a concentration of 10 mg/mL. Stock solutions were further diluted in DMSO to a concentration of 1 mM for use in the assay. The final assay concentration of test compound in each incubation mixture was 3 μM and the final concentration of DMSO was 0.3%.
(§3) Cell cultures were pre-incubated with Transport Medium (TM), consisting of Hanks Balanced Salt Solution (HBSS), 25 mM glucose, and 25 mM HEPES, with and without the known P-gp inhibitor GF120918 (2 μM final assay concentration), for 30-60 minutes prior to the addition of test and control compounds. Following the pre-incubation period, transepithelial electrical resistance (TEER) measurements were taken on each insert to insure the integrity of the monolayer. The range for TEER values was 45-85Ω·cm^2. Transport medium was removed. Fresh transport media (1.5 mL) with or without GF120918 was added to the basolateral chambers. Solutions of the test compound were diluted into TM and added to the appropriate wells in triplicate (400 μL/well) at a final concentration of 3 μM with and without GF120918. The final concentration of DMSO was 0.3%. Control compounds were tested in triplicate at a final concentration of 3 μM. Cell monolayers were incubated with shaking (160 rpm) at 37° C. with 5% CO2 in a humidified incubator for one hour. Following the incubation, all plates were removed from the incubator. Inserts were removed from the plates and TEER measurements were again taken on each insert prior to removing samples for analysis to ensure no degradation of the tight junctions during the assay. An aliquot was taken from each receiver and diluted 1:3 with organic solvent (methanol) to assess transport of each compound across the monolayer. An aliquot was taken from each donor and diluted 1:2 with organic solvent (methanol) and then again 1:50 with matrix (50% methanol/50% TM) to assess mass balance within the study. All samples were assayed for test compound concentrations by LC-MS/MS using electrospray ionization.

[2] = system: P-gp (human MDR1); experiment: in vitro; format: in vitro ADME, canine; conditions: dog, MDCK-MDR1; 3 μM test compound; without GF120918; read-out: MDCK-MCR1 Papp
Description: as §1, §2, §3

[3] = system: TREU 667 strain of T. b. brucei; experiment: Chronic CNS Model [Murine Stage 2 HAT]; format: in vivo; conditions: 50 mg/kg PO BID for 7 days, starting at Day 21 post-infection
Description: Mice were infected with 10,000 parasites of the TREU 667 strain of T. b. brucei. Twenty one days post-infection mice were treated with a dose of between 6 and 100 mg/kg of a compound of the invention, either BID or QD for 7 days intraperitoneally (IP) or orally (PO). Positive control mice were treated with Diminazene (10 mg/kg, IP) on Day 4 post-infection. Negative control mice were treated with Diminazene (10 mg/kg, PO) on Day 21. Since Diminazene is not able to penetrate the CNS, mice treated at Day 21 are not able to cure the infection. Starting 1 week after treatment, mice were checked for parasitemia by microscopic examination of smears prepared from tail vein blood. Parasite positive animals were immediately removed from the cages and euthanized. Animals were considered to be cured of a CNS infection if they were aparasitemic for at least 180 days after the end of the treatment period.

Compound: O=C(Nc1ccc2c(c1)B(O)OCC2)c1ccc(F)cc1C(F)(F)F [M1, 4-Fluoro-N-(1-hydroxy-3,4-dihydro-1H-benzo[c][1,2]oxaborinin-7-yl)-2-trifluoromethyl-benzamide]
- MDCK-MCR1 AQ [1]: −0.02
- Papp at 1 h, 3 µM [2]: 55.7 ×10⁻⁶ cm/s
- mice with absence of blood parasites through Day 180 [3]: 100%

Reference: patent publication US8623911B2, “Boron-containing small molecules as anti-protozoal agent” (Anacor Pharmaceuticals, Inc., priority 2010, dated 2014)
